Results as given in ChEMBL document CHEMBL5230145, “Bifunctional μ opioid and σ1 receptor ligands as novel analgesics with reduced side effects” (Eur J Med Chem, 2021).

System: Rodentia sp.
Assay: Analgesic activity in ip dosed formalin-induced pain rodent model
Format: functional
Details: not given

Compound	ED50
Cc1cc(OCCN2CCOCC2)nn1-c1ccc2ccccc2c1	33.2 mg/kg

System: not listed separately
Assay: Toxicity in ip dosed rodent
Format: organism-based
Details: rodentia, in vivo

Compound	LD50
Cc1cc(OCCN2CCOCC2)nn1-c1ccc2ccccc2c1	397 mg/kg

System: not listed separately
Assay: Therapeutic index, ratio of LD50 for toxicity in ip dosed rodent to ED50 for analgesic activity in ip dosed rodent
Format: organism-based
Details: rodentia, in vivo, read-out: Ratio LD50/ED50

Compound	selectivity ratio
Cc1cc(OCCN2CCOCC2)nn1-c1ccc2ccccc2c1	12

System: Rattus norvegicus
Assay: Analgesic activity in ig dosed formalin-induced pain Sprague-Dawley rat model
Format: functional
Details: po

Compound	ED50
Clc1ccc(-c2noc(CCCCN3CCCCC3)n2)c(Cl)c1	52.5 mg/kg

System: not listed separately
Assay: Toxicity in ig dosed Sprague-Dawley rat
Format: organism-based
Details: in vivo, po

Compound	LD50
Clc1ccc(-c2noc(CCCCN3CCCCC3)n2)c(Cl)c1	957 mg/kg

System: not listed separately
Assay: Therapeutic index, ratio of LD50 for toxicity in ig dosed Sprague-Dawley rat to ED50 for analgesic activity in ig dosed Sprague-Dawley rat
Format: organism-based
Details: in vivo, po, read-out: Ratio LD50/ED50

Compound	selectivity ratio
Clc1ccc(-c2noc(CCCCN3CCCCC3)n2)c(Cl)c1	18.2

Biological target: T1, Mu-type opioid receptor (Homo sapiens, UniProt P35372)
T1 sequence (P35372 whole entry): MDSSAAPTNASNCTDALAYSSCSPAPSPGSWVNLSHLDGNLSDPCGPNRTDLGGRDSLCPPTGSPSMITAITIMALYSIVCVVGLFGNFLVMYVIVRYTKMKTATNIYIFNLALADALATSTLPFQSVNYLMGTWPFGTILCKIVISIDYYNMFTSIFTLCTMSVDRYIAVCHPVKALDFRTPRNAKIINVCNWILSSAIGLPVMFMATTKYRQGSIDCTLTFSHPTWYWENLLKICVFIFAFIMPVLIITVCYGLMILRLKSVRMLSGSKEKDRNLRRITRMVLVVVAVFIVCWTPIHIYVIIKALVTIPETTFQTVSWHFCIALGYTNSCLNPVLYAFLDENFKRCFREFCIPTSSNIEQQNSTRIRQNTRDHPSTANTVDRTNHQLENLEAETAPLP
Assay: Displacement of [3H]-DAMGO from human mu opioid receptor expressed in CHO-K1 cells membrane incubated for 60 mins by MicroBeta scintillation counter assay
Format: cell membranes
Details: not given

Compound	Ki
CN(CCOC(c1cccs1)c1ccnn1C)Cc1ccccc1 (stereo unspecified)	< 100 nM
COc1ccc2c(c1)CCN(C)C21CCN(CCc2ccccc2)CC1	< 100 nM
CC(C)S(=O)(=O)Nc1cccc(C2CCN(Cc3cn(-c4ccccc4)nn3)CC2)c1	< 100 nM
CC(C)S(=O)(=O)Nc1cccc(N2CCN(Cc3cn(-c4ccccc4)nn3)CC2)c1	< 100 nM
CC(=O)Oc1cccc(C2CCN(Cc3cn(-c4ccccc4)nn3)CC2)c1	< 100 nM
O=C(c1cccc(C(F)(F)F)n1)C1(N2CCN(Cc3ccccc3)CC2)CCOC2(CCCC2)C1 (stereo unspecified)	< 100 nM
CN1CC2(CCN(CCc3ccccc3)CC2)c2ccccc2C1=O	100 nM
CC(C)S(=O)(=O)Nc1cccc(N2CCN(Cc3cn(-c4ccccc4F)nn3)CC2)c1	< 100 nM
CCN1CC2(CCN(CCc3ccccc3)CC2)c2ccccc2C1=O	100 nM
O=C(c1ccccn1)C1(N2CCN(Cc3ccccc3)CC2)CCOC2(CCCC2)C1 (stereo unspecified)	< 100 nM
CCOCCN1CCCCC(CC)(c2cccc(O)c2)C1 (stereo unspecified)	< 100 nM
CN(CCOC(c1cccs1)c1ccnn1C)CCc1ccccc1 (stereo unspecified)	< 100 nM
O=C(c1ccccc1)C1(N2CCN(Cc3ccccc3)CC2)CCOC2(CCCC2)C1 (stereo unspecified)	< 100 nM
CN1CCc2ccccc2C12CCN(CCc1ccccc1)CC2	< 100 nM
Oc1cccc(C2CCN(Cc3cn(-c4ccccc4)nn3)CC2)c1	< 100 nM

Biological target: Sigma non-opioid intracellular receptor 1 (Homo sapiens, UniProt Q99720)
Sequence (Q99720 whole entry): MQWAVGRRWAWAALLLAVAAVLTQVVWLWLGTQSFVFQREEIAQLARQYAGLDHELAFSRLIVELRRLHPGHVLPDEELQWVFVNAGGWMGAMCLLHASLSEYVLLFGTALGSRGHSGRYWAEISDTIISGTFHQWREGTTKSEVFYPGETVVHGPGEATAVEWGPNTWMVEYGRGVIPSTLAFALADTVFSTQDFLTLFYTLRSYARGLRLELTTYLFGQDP
Assay: Displacement of [3H](+)-pentazocine from human sigma 1 receptor expressed in HEK293 cells membrane incubated for 120 mins by MicroBeta scintillation counter assay
Format: cell membranes
Details: not given

Compound	Ki
CN(CCOC(c1cccs1)c1ccnn1C)Cc1ccccc1 (stereo unspecified)	< 100 nM
COc1ccc2c(c1)CCN(C)C21CCN(CCc2ccccc2)CC1	< 100 nM
CC(C)S(=O)(=O)Nc1cccc(C2CCN(Cc3cn(-c4ccccc4)nn3)CC2)c1	< 100 nM
CC(C)S(=O)(=O)Nc1cccc(N2CCN(Cc3cn(-c4ccccc4)nn3)CC2)c1	< 100 nM
CC(=O)Oc1cccc(C2CCN(Cc3cn(-c4ccccc4)nn3)CC2)c1	< 100 nM
O=C(c1cccc(C(F)(F)F)n1)C1(N2CCN(Cc3ccccc3)CC2)CCOC2(CCCC2)C1 (stereo unspecified)	< 100 nM
CN1CC2(CCN(CCc3ccccc3)CC2)c2ccccc2C1=O	100 nM
CC(C)S(=O)(=O)Nc1cccc(N2CCN(Cc3cn(-c4ccccc4F)nn3)CC2)c1	< 100 nM
CCN1CC2(CCN(CCc3ccccc3)CC2)c2ccccc2C1=O	100 nM
O=C(c1ccccn1)C1(N2CCN(Cc3ccccc3)CC2)CCOC2(CCCC2)C1 (stereo unspecified)	< 100 nM
CCOCCN1CCCCC(CC)(c2cccc(O)c2)C1 (stereo unspecified)	< 100 nM
CN(CCOC(c1cccs1)c1ccnn1C)CCc1ccccc1 (stereo unspecified)	< 100 nM
O=C(c1ccccc1)C1(N2CCN(Cc3ccccc3)CC2)CCOC2(CCCC2)C1 (stereo unspecified)	< 100 nM
CCC(=O)N(CCN1CCC(N(C)Cc2ccccc2)C1)c1ccccc1 (stereo unspecified)	100 nM
CN1CCc2ccccc2C12CCN(CCc1ccccc1)CC2	< 100 nM
Oc1cccc(C2CCN(Cc3cn(-c4ccccc4)nn3)CC2)c1	< 100 nM

System: Mus musculus
Assay: Antiallodynic activity in ip dosed MIA induced mechanical allodynia mouse model
Format: functional
Details: not given

Compound	ED50
CCC(=O)N(CC1(N2CCN(CC(C)C)CC2)CCOCC1)c1cccc(C(F)(F)F)n1	31.9 mg/kg

Biological target: T1, Mu-type opioid receptor
Assay: Binding affinity to mu opioid receptor (unknown origin) assessed as inhibition constant in presence of Levorphanol
Details: not given

Compound	Ki
C[C@@H]1[C@@H]2Cc3ccc(O)cc3[C@]1(C)CCN2CCc1ccccc1	55 nM
C[C@H]1[C@H]2Cc3ccc(O)cc3[C@@]1(C)CCN2CCc1ccccc1	0.2 nM

System: not listed separately
Assay: Metabolic stability in mini-pig liver microsomes assessed as compound remaining after 1 hr
Format: ADME, Sus scrofa domesticus, Microsome
Details: read-out: Stability

Compound	remaining at 1 h
[2H]C([2H])([2H])C([2H])([2H])N1CC2(CCN(C([2H])([2H])C([2H])([2H])c3cc(F)ccc3F)CC2)O[C@H](C)C1=O	64%
